Experimental data published in publication PMC5354820, “Novel PARP1/2 inhibitor mefuparib hydrochloride elicits potent in vitro and in vivo anticancer activity, characteristic of high tissue distribution” (Oncotarget, 2016).
In brackets after ≈: the same amount, converted by molar mass. Read-outs that look alike come from different tables or passages of the source. Each block holds one molecule with its values, some of them ahead of it.

Legend:
V-C8 cells = assay: Proliferative inhibition assay, V-C8; format: cell-based, Chinese hamster; details: Cricetulus griseus, V-C8, 72 h, read-out: IC50 (mean ± SD)
Experimental: (§2) Cells cultured in 96-well plates were treated with PARP inhibitors alone or in combination with the indicated anticancer drugs for 3 days (Chinese hamster cells and Ewing sarcoma cells) or 7 days (all the other cells). Then the cells were subjected to the Cell Counting Kit 8 (CCK8) assays (Chinese hamster cells, Ewing sarcoma cells, HCC1937 and MDA-MB-436 cells) or by Sulforhodamine B (SRB) assays (all the other cells) as described previously [18, 19]. […] The averaged IC50 values (mean ± SD) were determined with the Logit method from three independent tests.

V79 cells = assay: Proliferative inhibition assay, V79; format: cell-based, Chinese hamster; details: Cricetulus griseus, V79, 72 h, read-out: IC50 (mean ± SD)
Experimental: as §2

V-C8+H13 cells = assay: Proliferative inhibition assay, V-C8+H13; format: cell-based, Chinese hamster; details: Cricetulus griseus, 72 h, read-out: IC50 (mean ± SD)
Experimental: as §2

MDA-MB-436 cells = assay: Proliferative inhibition assay, MDA-MB-436; format: cell-based; details: Homo sapiens, MDA-MB-436, 168 h, read-out: IC50 (mean ± SD)
Experimental: as §2

HCC1937 cells = assay: Proliferative inhibition assay, HCC1937; format: cell-based; details: Homo sapiens, HCC1937, 168 h, read-out: IC50 (mean ± SD)
Experimental: as §2

UWB1.289 cells = assay: Proliferative inhibition assay, UWB1.289; format: cell-based; details: Homo sapiens, UWB1289, 168 h, read-out: IC50 (mean ± SD)
Experimental: as §2

Capan-1 cells = assay: Proliferative inhibition assay, Capan-1; format: cell-based; details: Homo sapiens, CAPAN-1, 168 h, read-out: IC50 (mean ± SD)
Experimental: as §2

DoTc2-4510 cells = assay: Proliferative inhibition assay, DoTc2-4510; format: cell-based; details: Homo sapiens, DoTc2-4510, 168 h, read-out: IC50 (mean ± SD)
Experimental: as §2

HCT-15 cells = assay: Proliferative inhibition assay, HCT-15; format: cell-based; details: Homo sapiens, HCT-15, 168 h, read-out: IC50 (mean ± SD)
Experimental: as §2

U251 cells = assay: Proliferative inhibition assay, U251; format: cell-based; details: Homo sapiens, U-251, 168 h, read-out: IC50 (mean ± SD)
Experimental: as §2

PC-3 cells = assay: Proliferative inhibition assay, PC-3; format: cell-based; details: Homo sapiens, PC-3, 168 h, read-out: IC50 (mean ± SD)
Experimental: as §2

SK-ES-1 cells = assay: Proliferative inhibition assay, SK-ES-1; format: cell-based; details: Homo sapiens, SK-ES1, 72 h, read-out: IC50 (mean ± SD)
Experimental: as §2

RD-ES cells = assay: Proliferative inhibition assay, RD-ES; format: cell-based; details: Homo sapiens, 72 h, read-out: IC50 (mean ± SD)
Experimental: as §2

V-C8 xenografts = format: in vivo; details: mouse, in vivo
From the text: (§1) V-C8, V79, MDA-MB-436 and SW620 xenografts were established by inoculating 5 × 10^6 cells s.c. in nude mice, respectively. After 1~2 passages in nude mice, the well-grown xenografts were cut into 1.5-mm^3 fragments that subsequently were transplanted s.c. into the right flank of nude mice. When xenografts reached a volume of 100–200 mm^3 (230-240 mm^3 for V79), the mice were randomized to control and treated groups and received the corresponding treatments as indicated. […]. The size of xenografts and the body weight of mice were measured individually twice per week. The xenografts were measured for the maximal width (X) and length (Y) and the volume (V) was calculated as (X^2Y)/2. Relative tumor volume (RTV) was calculated as Vt / V0, where V0 and Vt were the volume before and after treatments, respectively. The in vivo anticancer activity was judged by their T/C (%) values. T/C (%) was calculated as (TRTV / CRTV)×100%, where TRTV and CRTV represented the RTV of the treatment and the vehicle group, respectively.

V79 xenografts = assay: V79 subcutaneous xenografts in nude mice; format: in vivo; details: similar treatments as in V-C8 xenografts
From the text: as §1

MDA-MB-436 xenografts = assay: MDA-MB-436 subcutaneous xenografts in nude mice; format: in vivo; details: oral; MPH once every other day, AZD2281 30 mg/kg each day
From the text: as §1

γH2AX in V-C8 cells = assay: γH2AX accumulation in cultured V-C8 cells; format: cell-based, Chinese hamster; details: V-C8 (BRCA2−/−), concentration-dependent
[1] = test system: γH2AX in MDA-MB-436 cells; assay: γH2AX accumulation in cultured MDA-MB-436 cells; format: cell-based, human; details: MDA-MB-436 (BRCA1−/−), concentration-dependent
[2] = cited from earlier work
[3] = design: method as in PMID 19553641; details: humans; cited from earlier work
[4] = design: method as in PMID 18800822; details: rats; cited from earlier work
[5] = design: method as in PMID 18800822; details: dogs; cited from earlier work
P-glycoprotein (P-gp) = test system: P-glycoprotein (P-gp); design: method as in PMID 26374559; details: cited from earlier work
[6] = design: method as in PMID 19553641; details: cited from earlier work
[7] = Metabolites in monkey plasma; format: in vivo; details: monkeys, MPH 10 mg/kg oral; for share of the total amount of all the metabolites and MPH in the plasma: 3-h time point; for average remaining amount, of the corresponding plasma amount at 3 h: 12-h time point
Experimental: SD rats and cynomolgus monkeys were used to do the in vivo pharmacokinetic studies. […] The metabolites in the monkey plasma were analyzed by UPLC-UV/Q-TOF MS. The metabolite data were collected with Analyst® TF V1.6 (AB Sciex Inc., Framingham, MA) and Masslynx V4.1 (Waters Corporation, Milford, MA) and analyzed with PeakView® V1.2 and MetabolitePilot V1.5 (AB Sciex).

SW620 xenografts = assay: SW620 subcutaneous xenografts in nude mice, alone or with TMZ; format: in vivo; details: SW620, d21, TMZ 2 mg/kg alone
Experimental: After 1~2 passages in nude mice, the well-grown xenografts were cut into 1.5-mm^3 fragments that subsequently were transplanted s.c. into the right flank of nude mice. When xenografts reached a volume of 100–200 mm^3 (230-240 mm^3 for V79), the mice were randomized to control and treated groups and received the corresponding treatments as indicated. […] The size of xenografts and the body weight of mice were measured individually twice per week. The xenografts were measured for the maximal width (X) and length (Y) and the volume (V) was calculated as (X^2Y)/2. Relative tumor volume (RTV) was calculated as Vt / V0, where V0 and Vt were the volume before and after treatments, respectively.

share of the total amount of all the metabolites and MPH in the plasma [7]: 52.18% | average remaining amount, of the corresponding plasma amount at 3 h [7]: 3.13%
SMILES: CNCc1ccc(-c2cc3cc(F)cc(C(=O)O)c3o2)cc1 [M1]

share of the total amount of all the metabolites and MPH in the plasma [7]: 1.86% | average remaining amount, of the corresponding plasma amount at 3 h [7]: 23.54%
SMILES: NC(=O)c1cc(F)cc2cc(-c3ccc(C(=O)O)cc3)oc12 [M2]

share of the total amount of all the metabolites and MPH in the plasma [7]: 4.18%
SMILES: CNCc1ccc(-c2cc3cc(F)cc(C(=O)OC4OC(C(=O)O)C(O)C(O)C4O)c3o2)cc1 (centres unmarked) [M3]

share of the total amount of all the metabolites and MPH in the plasma [7]: 0.24%
SMILES: CNC(=O)c1ccc(-c2cc3cc(F)cc(C(N)=O)c3o2)cc1 [M4]

share of the total amount of all the metabolites and MPH in the plasma [7]: 0.72%
SMILES: CC(=O)NCc1ccc(-c2cc3cc(F)cc(C(=O)O)c3o2)cc1 [M5]

share of the total amount of all the metabolites and MPH in the plasma [7]: 1.63%
SMILES: CN(Cc1ccc(-c2cc3cc(F)cc(C(N)=O)c3o2)cc1)OC1OC(C(=O)O)C(O)C(O)C1O (centres unmarked) [M6]

The next lines start with the molecule.

SMILES: O=C(c1cc(Cc2n[nH]c(=O)c3ccccc23)ccc1F)N1CCN(C(=O)C2CC2)CC1 [AZD2281, olaparib, reference compound]
IC50 (V-C8 cells): 0.61 ± 0.04 µM | IC50 (V79 cells): 15.6 ± 1.15 µM | IC50 (V-C8+H13 cells): 13.6 ± 1.85 µM | IC50 (MDA-MB-436 cells): 0.02 ± 0.01 µM | IC50 (HCC1937 cells): 7.28 ± 1.91 µM | IC50 (UWB1.289 cells): 2.98 ± 1.65 µM | IC50 (Capan-1 cells): 1.73 ± 0.32 µM | IC50 (DoTc2-4510 cells): 0.89 ± 0.28 µM | IC50 (HCT-15 cells): 25.7 ± 4.7 µM | IC50 (U251 cells): 2.5 ± 0.64 µM | IC50 (PC-3 cells): 4.7 ± 0.69 µM | IC50 (SK-ES-1 cells): 1.7 ± 0.13 µM | IC50 (RD-ES cells): 0.67 ± 0.14 µM | death or body-weight loss of the animals (V-C8 xenografts): did not cause death or significant body-weight loss | effect on growth of V79 xenografts (V79 xenografts): did not inhibit the growth of V79 xenografts | effect on growth of MDA-MB-436 (BRCA1−/−) xenografts (MDA-MB-436 xenografts): between those of MPH at 40 mg/kg and 80 mg/kg every other day | γH2AX levels (DSB accumulation) (γH2AX in V-C8 cells): increased levels of γH2AX | γH2AX levels (DSB accumulation) [1]: increased levels of γH2AX | water solubility [2]: < 1000 µg/mL | solubility in aqueous media ([2]; independent of pH): 100 µg/mL (≈ 230 µM) | average Vd [3]: 40.3 L | Vd [4]: 1.18 L/kg | Vd [5]: 1.3 L/kg | P-gp substrate (P-glycoprotein (P-gp)): substrate of the drug transporter P-glycoprotein (P-gp) | passage of the blood-brain barrier [6]: hard to go through the blood-brain barrier

SMILES: Cn1nnc2c(C(N)=O)ncn2c1=O [TMZ, temozolomide, reference compound]
FTV (fractional tumor volume), TMZ alone (SW620 xenografts): 0.16

SMILES: NC(=O)c1cccc2cn(-c3ccc([C@@H]4CCCNC4)cc3)nc12 [niraparib]
water solubility [2]: < 1000 µg/mL

SMILES: CNCc1ccc(-c2[nH]c3cc(F)cc4c3c2CCNC4=O)cc1 [rucaparib]
water solubility [2]: < 1000 µg/mL

SMILES: Cn1ncnc1[C@H]1c2n[nH]c(=O)c3cc(F)cc(c23)N[C@@H]1c1ccc(F)cc1 [talazoparib]
water solubility [2]: < 1000 µg/mL

SMILES: C[C@]1(c2nc3c(C(N)=O)cccc3[nH]2)CCCN1 [veliparib]
water solubility [2]: < 1000 µg/mL
